Publication PMC10036753, “Orally disintegrating tablets containing famotidine nanoparticles provide high intestinal absorbability via the energy-dependent endocytosis pathway” (Frontiers in Bioengineering and Biotechnology, 2023)

How the values were obtained:
[1] = Particle size distribution of FAM dispersions and redispersed FAM tablets (NanoSight LM10); format: physicochemical
Protocol: The characterization of the FAM tablets and their redispersion were evaluated in accordance with our previous study ([Deguchi et al., 2021]; [Nagai et al., 2022]). Briefly, the shape and dimensions of the tablets were analyzed using ImageJ image analysis software 1.53. Hardness was measured using a Force Tester MCT-2150 (A&D Co., Ltd., Toshimaku, Japan), and friability was measured using an Oriental Reaction Motor (ORIENTAL MOTOR Co., Ltd., Tokyo, Japan). The disintegration of FAM tablets was evaluated using NT-2H (TOYAMA SANGO Co. Ltd., Osaka, Japan). The friability and disintegration of the FAM tablets were measured according to the Japanese Pharmacopoeia (18th edition). The FAM tablets were dispersed in 10 mL of purified water and the redispersion, solubility, viscosity, and intestinal penetration were measured. The particle distributions of the FAM dispersions and redispersed FAM tablets were measured by […] NanoSight LM10 (Quantum Design Japan, Tokyo, Japan), and the measurement time, wavelength, and viscosity were set to 60 s, 405 nm (blue) and 1.27 mPa s, respectively. Scanning electron microscopy (SEM) images were obtained using NeoScope™ JCM-7000 (JEOL Ltd., Tokyo, Japan). […] The viscosity of the redispersed FAM tablet was measured at 20°C–40°C using an SV-1A viscometer (A&D Company, Limited, Tokyo, Japan).

[2] = Pharmacokinetic study of FAM tablet in the rat; format: in vivo, Wistar rats; details: Wistar, plasma, intravenous, single injection of FAM solution in DMSO (0.04 mg/kg) into the femoral vein
Protocol: FAM concentration was determined by HPLC using an LC-20AT HPLC system (Shimadzu Corp., Kyoto, Japan). A Luna® 5 µm C18 column (100 Å, 150 × 4.6 mm, GL Science Co., Inc., Tokyo, Japan) was used for the measurement, and the mobile phase [one-heptanesulfonic acid sodium salt/acetonitrile/methanol (25/6/1)] was followed at 0.25 mL/min. The sample was mixed with an internal standard (methyl p-hydroxybenzoate) in methanol and 10 µL of the mixture was injected into the HPLC system using an SIL-20AC HPLC auto injector. In this study, the FAM levels were measured at 254 nm (wavelength for detection).
Blood (200 μL) was collected from the right jugular vein at the indicated time intervals (0, 10, 20, 30, and 360 min). The collected blood was centrifuged at 800 × g for 15 min at 4°C, and the supernatant was used for measurement.

[3] = without bead-milling treatment
Protocol: First, 3 mL of each FAM dispersion were incubated in 5 mL test tubes in the dark at 20°C for 28 days. Images of the FAM dispersions were captured with a digital camera. The dispersions (50 μL) were withdrawn from 5 mm under the surface at the indicated time intervals (0, 7, 14, 21, and 28 days), and the FAM concentration was measured using the HPLC methods described above. In this study, the difference in FAM concentrations before and after the start of the experiment was estimated, and the changes in FAM levels on the surface were defined as the dispersibility of the FAM dispersions.

H2 receptors = details: ref Hassan et al., 1990; Patel and Patel, 2013; cited from earlier work
[4] = ref Jha et al., 2014; cited from earlier work
[5] = oral, 40 mg daily; ref Lyon, 1986; Ramchandran et al., 2011; cited from earlier work
[6] = ref Khalifa and Abdul Rasool, 2017; cited from earlier work

- Mean particle size of FAM ([1]; dispersion with bead-milling treatment): 108 ± 5.7 nm
- Mean particle size of FAM ([1]; dispersion without bead-milling treatment): 23.7 ± 2.1 µm
- Vd ([2]; read-out: Distribution volume (V d)): 0.064 L
- k el ([2]; read-out: Elimination rate constant (k e) (converted)): 2.17e-05 s⁻¹
- Time after preparation at which FAM was precipitated [3]: 24 h
Structure (SMILES): NC(N)=Nc1nc(CSCCC(N)=NS(N)(=O)=O)cs1 [FAM, Famotidine]
- Inhibitory effect relative to cimetidine (H2 receptors): 20 fold
- Inhibitory effect relative to ranitidine (H2 receptors): 7.5 fold
- Intestinal penetration after oral administration [4]: < 50%
- Tolerability [5]: well tolerated
- BCS classification [6]: class III
